Assay results: US7189751B2, “Oxa(thia)zolidine compounds, process for preparation thereof and anti-inflammatory agents” (Nippon Soda Co., Ltd., priority 2001, dated 2007)

Legend:
[1] = target: T1, IV-cPLA(2) in activated U937 cells (Homo sapiens, UniProt P47712); test: PLA(2) activity: hydrolysis of bis-BODIPY FL C11-PC in TPA/A23187-activated U937 cells; type: cell-based; settings: U-937
T1 sequence (P47712 1-749): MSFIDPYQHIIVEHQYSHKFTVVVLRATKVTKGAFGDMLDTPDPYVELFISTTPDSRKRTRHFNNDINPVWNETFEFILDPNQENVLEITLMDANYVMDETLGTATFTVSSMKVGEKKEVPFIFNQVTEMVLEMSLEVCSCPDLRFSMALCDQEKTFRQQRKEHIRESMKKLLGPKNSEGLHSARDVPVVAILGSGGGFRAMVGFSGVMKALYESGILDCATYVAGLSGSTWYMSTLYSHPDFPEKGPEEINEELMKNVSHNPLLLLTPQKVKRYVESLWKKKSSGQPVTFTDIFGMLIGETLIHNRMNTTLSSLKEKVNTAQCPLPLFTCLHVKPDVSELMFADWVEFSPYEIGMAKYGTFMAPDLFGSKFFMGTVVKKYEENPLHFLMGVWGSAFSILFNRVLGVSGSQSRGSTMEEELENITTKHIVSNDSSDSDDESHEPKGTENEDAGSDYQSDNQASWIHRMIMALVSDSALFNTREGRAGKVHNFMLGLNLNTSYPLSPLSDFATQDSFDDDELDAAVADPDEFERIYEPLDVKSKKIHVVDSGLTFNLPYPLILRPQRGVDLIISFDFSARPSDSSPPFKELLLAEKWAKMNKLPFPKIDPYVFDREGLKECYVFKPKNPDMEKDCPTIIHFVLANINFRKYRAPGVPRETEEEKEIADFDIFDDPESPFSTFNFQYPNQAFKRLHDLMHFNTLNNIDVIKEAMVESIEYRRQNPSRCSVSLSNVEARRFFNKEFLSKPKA
Description: The PLA(2) activity was measured by quantitatively analyzing the fluorescent product of hydrolysis from 1,2-bis-(4,4-difluoro-5,7-dimethyl-4-bora-3a,4a-diaza-s-indecene-3-undecanoyl)-sn-glycero-3-phosphocholine (hereinafter referred to bis-BODIPY®FL C11-PC, Molecular probes, Inc., B-7701) using activated U937 cells (human monoblastic lymphoma cell line) by inflammatory stimulus (Meshulam, T. et al., The journal of Biological Chemistry 267 (30): 21465–21470 (1992); and Solito, E. et al., British Journal of Pharmacology 124: 1675–1683(1998).). The substrate bis-BODIPY®FL C11-PC is incorporated into cellular membranes, the proximity of the BODIPY®FL fluorophores on adjacent phospholipid acyl chains causes fluorescence self-quenching. Separation of the fluorophores upon hydrolytic cleavage of one of the acyl chains by PLA(1) or the PLA(2) results in increased fluorescence. […]
The test compound was dissolved with DMSO at 30 mM, and the solution diluted with either DMSO or the Assay medium before addition into the reaction mixture. […] The increased fluorescence of the hydrolysis product by the enzyme was determined by measuring the fluorescence emission intensity at 535 nm with excitation at 485 nm from the top side of each plate at 37° C., using a Multi Functional Microplate Reader SPECTRA FLUOR PLUS (TECAN Austria GmbH). […]

[2] = test system: acetic acid induced writhes; test: Acetic acid writhing; type: in vivo, mouse
Description: Pharmacological Test Example 4: Acetic Acid Wirthing
This test was carried out referring to the method of Inoue, K., Motonaga, A. & Nishimura, T (Arzneimittel Forshung/Drug Research, 41 (1): 235–239 (1991)). More specifically, 7.5 mL/kg of 0.9% acetic acid solution was injected intraperitoneally into an ICR-strain male mouse (5 to 7 weeks old), and the induced writhes (characteristic behaviors of convulsive contracting the abdomen, twisting the body and/or extending the legs) were observed. Number of writhes of each mouse was measured during 10 to 20 min. period after acetic acid administration. […] The analgesic activity of the compounds according to the present invention was evaluated on the basis of the degree of inhibiting the number writhes by the administration of the compounds. As the positive control, indomethacin or aspirin was administrated. The analgesic activity of the compounds according to the present invention measured in this test were exemplified in Table 7.

[3] = test system: Mouse Ear Edema Induced by TPA; test: Mouse ear edema induced by TPA; type: in vivo; settings: for Ear Edema Inhibition (%): topical, ICR male mouse, 6 hours after TPA
Description: Pharmacological Test Example 2: Mouse Ear Edema Induced by TPA
This test was carried out referring to the method of Carlson, R. P. et al. (Agents and Actions, 17(2): 197–204 (1985).) and the method of Chang, J. (European Journal of Pharmacology, 142: 197–205 (1987).). More specifically, 5 μg/20 μL of TPA (Sigma Chemical Co.), dissolved with ethanol, was topically applied to the anterior and posterior surfaces of the right ear of an ICR-strain male mouse (6–7 weeks old). 6 hours later, the thickness of each ear at the particular part was respectively measured three times using a digimatic micrometer to calculate the mean value. Ear edema was determined by subtracting the mean thickness of the left ear as without treatment from that of the right ear as TPA-applied. Topical application activity was evaluated by applying an acetone solution of the compound of the present invention or 0.1% Tween 80/acetone solution thereof similarly to the anterior and posterior surfaces of the right ear 30 min. before and 15 min. after the TPA-application. […] Oral administration activity was evaluated by administrating 0.2% Tween 80 suspension of the compound of the present invention forcibly and perorally to the mouse an hour prior to the TPA-application. As the positive control, 100 mg/kg of Hydrocortisone (Sigma Chemical Co., H 4001) suspension was applied to the mouse similarly as for the compound of the present invention.

Cc1ccc(S(=O)(=O)C(C#N)=C2N[C@@H](C)[C@@H](c3ccc(Cl)cc3)O2)cc1 (relative stereo) [Compound 1-41, Cis-5-(4-chlorophenyl)-4-methyl-2-(1-(4-methylphenylsulfonyl)-1-cyanomethylene)-oxazolidine]
inhibition at 0.1 µM [1]: 100% | Number of writhes (Mean ± S.E.) ([2]; i.p. 1 mg/kg, 30 min before, vehicle i.p. 25.2 ± 2.2): 4.0 ± 1.9 | Number of writhes (Mean ± S.E.) ([2]; p.o. 10 mg/kg, 120 min before, vehicle p.o. 23.5 ± 3.1): 1.3 ± 0.8 | Ear Edema Inhibition (%) ([3]; 1 mg/40 μL/ear × 2): 80.5%

CC(=O)Oc1ccccc1C(=O)O [Aspirin, aspirin]
Number of writhes (Mean ± S.E.) ([2]; i.p. 30 mg/kg, 30 min before, vehicle i.p. 25.2 ± 2.2): 9.5 ± 2.0 | Number of writhes (Mean ± S.E.) ([2]; p.o. 100 mg/kg, 60 min before): 9.5 ± 1.9

CC(=O)OCC(=O)[C@@]1(O)[C@H](C)C[C@H]2[C@@H]3CCC4=CC(=O)C=C[C@]4(C)[C@@]3(F)[C@@H](O)C[C@@]21C [DEX-Ac, Dexamathasone-21-acetate]
body weight after 24 hours ([3]; mice of the TPA ear edema test): reduced | Ear Edema Inhibition (%) ([3]; 1 mg/20 μL/ear × 2): 79.6%

COc1ccc2c(c1)c(CC(=O)O)c(C)n2C(=O)c1ccc(Cl)cc1 [Indomethacin, indomethacin]
Number of writhes (Mean ± S.E.) ([2]; i.p. 3 mg/kg, 30 min before, vehicle i.p. 25.2 ± 2.2): 13.8 ± 3.0 | Number of writhes (Mean ± S.E.) ([2]; i.p. 10 mg/kg, 30 min before, vehicle i.p. 25.2 ± 2.2): 4.8 ± 0.9 | Number of writhes (Mean ± S.E.) ([2]; p.o. 3 mg/kg, 60 min before): 6.8 ± 2.0 | intoxicated symptoms ([3]; mice of the TPA ear edema test): showed intoxicated symptoms | body weight after 24 hours ([3]; mice of the TPA ear edema test): reduced | Ear Edema Inhibition (%) ([3]; 3 mg/40 μL/ear × 2): 63.5%
